Measured values taken from patent US5008252A, “Process for inhibiting herpes simplex virus-specified thymidine kinase” (The University of North Carolina at Chapel Hill, priority 1987, dated 1991).

System: HSV-1 (strain KOS)-infected HeLa BU cells
Assay: Virus yield assay
Assay type: cell-based
Conditions: for reversal of antiviral activity by 5'-Et-dThd: 100 μM 5'-Et-dThd, ACV 15 μM, DHPG 2 μM, FIAC 1 μM, BVDU 1 μM, 5'-NH2-dThd 500 μM; for % PFU with a 5'-Et-dThd conc. of 2.5 μM: drug (μM as in row; None = 5'-Et-dThd alone) plus 2.5 μM 5'-Et-dThd; for % PFU with a 5'-Et-dThd conc. of 25 μM: drug (μM as in row; None = 5'-Et-dThd alone) plus 25 μM 5'-Et-dThd; for % PFU with a 5'-Et-dThd conc. of 0 μM: drug alone, drug μM in parentheses in row: ACV 15, FIAC 1, DHPG 2, BVDU 1, 5'-NH2-dThd 500
Description: Cell and virus growth inhibition. Cell growth inhibition and the virus yield assay were performed in accordance with the protocol described by Cheng, Y.-C., Grill, S.P., Ruth, J. and Bergstrom, D. E. (Antimicrob. Agents Chemother. 18:957-961 (1980)) with the exceptions that all studies were done using 5% dialyzed fetal bovine serum; the multiplicity of infection was 3 PFU/cell and Vero cells were used instead of CV-1 cells for titration in the virus yield assays.

[1] = Table II, drug (μM as in row; None = 5'-Et-dThd alone) plus 100 μM 5'-Et-dThd

SMILES	reversal of antiviral activity by 5'-Et-dThd [fold]	% PFU with a 5'-Et-dThd conc. of 2.5 μM (Table II) [%]	% PFU with a 5'-Et-dThd conc. of 25 μM (Table II) [%]	% PFU with a 5'-Et-dThd conc. of 0 μM (Table II) [%]	% PFU with a 5'-Et-dThd conc. of 100 μM [1] [%]	% PFU with 100 μM 5'-Et-dThd relative to aphidicolin alone (0.2 μM aphidicolin plus 100 μM 5'-Et-dThd)	activity at 0.2 µM (Human alphaherpesvirus 1, HeLa, read-out: %PFU with a 5'-Et-dThd conc. of 0 μM) [%]	%PFU with a 5'-Et-dThd conc. of 5 μM (Table III, aphidicolin 0.2 μM (None = 5'-Et-dThd alone) plus 5 μM 5'-Et-dThd) [%]	%PFU with a 5'-Et-dThd conc. of 20 μM (Table III, aphidicolin 0.2 μM (None = 5'-Et-dThd alone) plus 20 μM 5'-Et-dThd) [%]	% PFU with a 5'-Et-dThd conc. of 100 μM (Table III, aphidicolin 0.2 μM (None = 5'-Et-dThd alone) plus 100 μM 5'-Et-dThd) [%]
O=c1[nH]c(=O)n([C@H]2C[C@H](O)[C@@H](CO)O2)cc1/C=C/Br [BVDU, (E)-5-(2-bromovinyl)-2'-deoxyuridine]	15	9.5	13	0.9	–	–	–	–	–	–
Nc1nc(=O)n([C@@H]2O[C@H](CO)[C@@H](O)[C@@H]2F)cc1I [FIAC, fluoroido-arabinosyl-cytosine]	98	26	59	0.6	–	–	–	–	–	–
Nc1nc2c(ncn2COCCO)c(=O)[nH]1 [ACV, acyclovir]	35	9	45	2	70	–	–	–	–	–
Cc1cn([C@H]2C[C@H](O)[C@@H](CN)O2)c(=O)[nH]c1=O [5'-NH2-dThd, 5'-amino-dThd]	250	0.3	3	0.2	50	–	–	–	–	–
C[C@@]1(CO)[C@H](O)CC[C@@]2(C)[C@H]1CC[C@H]1C[C@@H]3C[C@@]12CC[C@]3(O)CO [Aphidicolin, aphidicolin]	–	–	–	–	–	less than one half	54	65	45	21
Nc1nc2c(ncn2COC(CO)CO)c(=O)[nH]1 [DHPG, 9-(1,3-dihydroxy-2-propoxymethyl) guanine]	100	0.2	4	0.1	10	–	–	–	–	–
